Test results as given in US20250099596A1, “TETRAHYDRONAPHTHALENE COMPOUND, AND PREPARATION METHOD THEREFOR AND USE THEREOF IN MEDICINE” (Jiangsu Hengrui Pharmaceuticals Co., Ltd., priority 2021, published 2025).
Where two headings read alike, the source gives them in different places.

Assay: Pharmacokinetic evaluation, beagle test
Format: in vivo
Conditions: beagles; for AUC(0-t): read-out: Area under curve AUC0-t; for half-life: read-out: Half-life T1/2 (converted); for Cmax: read-out: Plasma concentration Cmax
Protocol: With beagles as test animals, the plasma concentrations of the compound of Example 26-1 and Comparative Example 1 were determined by LC/MS/MS at different time points after intragastric (i.g.)/intravenous (i.v.) administration to beagles. The pharmacokinetic behavior of the compound of the present disclosure in beagles was studied and its pharmacokinetic profile was evaluated.
The compound of Example 26-1 and Comparative Example 1 (see patent WO2018102725A1, Example 411), whose structure is shown below:
Sixteen beagles, of which half were male and half female, were evenly divided into 4 groups. The beagles were provided by Shanghai Medicilon Inc. The 4 groups were fasted overnight and then dosed intragastrically and intravenously.
Certain amounts of the compound of Example 26-1 and the compound of Comparative Example 1 were weighed out and mixed with 5% (v/v) DMSO+30% (v/v) PG+30% (v/v) PEG400+35% (v/v) normal saline to make 0.4 mg/mL clear solutions (for the intragastric administration groups) and 0.25 mg/mL clear solutions (for the intravenous administration groups).
The intragastric administration groups: the dose was 2.0 mg/kg, and the volume was 5.0 mL/kg.
The intravenous administration groups: the dose was 0.5 mg/kg, and the volume was 2.0 mL/kg.
The intragastric administration group: Blood (1.0 mL) was collected from the jugular vein or the forelimb vein into EDTA-K2 anticoagulation tubes before administration and 0.25 h, 0.5 h, 1.0 h, 2.0 h, 4.0 h, 6.0 h, 8.0 h, 12.0 h and 24.0 h after administration and centrifuged at 10,000 rpm for 5 min (4° C.). The plasma was separated within 1 h and stored at −80° C. before analysis. The process from blood collection to centrifugation was performed in an ice bath. Three hours after administration, feeding was resumed.
The intravenous administration groups: Blood was collected before administration and 5 min, 0.25 h, 0.5 h, 1.0 h, 2.0 h, 4.0 h, 8.0 h, 12.0 h and 24 h after administration and processed as in the intragastric administration groups.
The plasma concentrations of the test compounds were determined after administration of different concentrations of the test compounds to beagles: plasma samples (50 μL) were collected from beagles at various time points after administration, and proteins were precipitated with 500 μL of methanol (containing 100 ng/mL internal standard Verapamil) for each of the samples; the mixtures were vortexed for 1 min and centrifuged at 18,000 g for 7 min. 500 μL of supernatant was transferred to a 96-well plate. 1 μL of supernatant was collected for LC/MS/MS analysis.

[1] = both sexes, beagle, dog, plasma, iv, i.v., 0.5 mg/kg
[2] = both sexes, beagle, dog, plasma, po, i.g., 2.0 mg/kg

Which results are given for O=C1CCC(N2Cc3cc(N4CCN(CC5CCN(c6ccc([C@@H]7c8ccc(O)cc8CC[C@@H]7c7ccccc7)cc6)CC5)CC4)ccc3C2=O)C(=O)N1 (stereo partly drawn) [Comparative Example 1, reference compound]?
Clearance CL/F (i.v., 0.5 mg/kg): 2.8 mL/min/kg; AUC(0-t) [1]: 2680 ng·h/mL; half-life [1]: 8.1 h; Cmax [1]: 600 ng/mL; Vd/F (both sexes, beagle, dog, plasma, po, i.g., 2.0 mg/kg, read-out: Apparent distribution volume Vz/F): 5.5 L/kg; AUC(0-t) [2]: 4050 ng·h/mL; CL/F (both sexes, beagle, dog, plasma, po, i.g., 2.0 mg/kg, read-out: Clearance CL/F): 7.3 mL/min/kg; half-life [2]: 9 h; Cmax [2]: 324 ng/mL
